Experimental data reported in US20020026053A1, “Novel 3-(substituted) -2- indolinones compounds and use thereof as inhibitors of protein kinase activity” (priority 1997, published 2002).

Tested on: FLK-1 receptor
Test: FLK-1 Assay (cellular/catalytic ELISA, VEGF-stimulated phosphotyrosine)
Assay type: cell-based
Design: concentration or dose not given beside the values
Details: protocol P.110
Summary of the method: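 NIH3T3 C7#3 cells engineered to express Flk-1 were serum-starved overnight (0.1% FBS), then exposed to compound for 2 h at 37 °C (final dilution 1:200, 0.5% DMSO) before VEGF stimulation. Lysates captured on anti-FLK-1 antiserum plates; phosphotyrosine detected by UB40 antibody/POD-ABTS ELISA versus untreated controls.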

Row | Compound | Flk Kinase % Inhibition (P.110)
1 | COC1CCCN1C=C1C(=O)Nc2c(Br)cc(Br)cc21 (racemic) [10740/A04] | 1.3%
2 | COC1CCCN1C=C1C(=O)Nc2ccc(I)cc21 (racemic) [10740/B04] | −0.3%
3 | Cc1c(Br)cc(Br)c2c1C(=Cc1ccc(CO)o1)C(=O)N2 [10739/H11] | −7.6%
4 | O=C1Nc2c(Br)cc(Br)cc2C1=Cc1cnc2ccccc2c1 [10740/A02] | 5.7%
5 | O=C1Nc2c(Br)cc(Br)cc2C1=Cc1ccnc2ccccc12 [10740/A03] | 4.2%
6 | O=C1Nc2c(Br)cc(Br)cc2C1=Cc1ccsc1 [10740/A05] | −13.1%
7 | O=C1Nc2c(Br)cc(Br)cc2C1=Cc1ccc2ccccc2n1 [10740/A06] | −8.7%
8 | Cn1cc(C=C2C(=O)Nc3c(Br)cc(Br)cc32)c2ccccc21 [10740/A07] | −18.3%
9 | Cc1[nH]c2ccccc2c1C=C1C(=O)Nc2c(Br)cc(Br)cc21 [10740/A08] | −18.3%
10 | O=C1Nc2c(Br)cc(Br)cc2C1=Cc1cc(Br)cs1 [10740/A10] | −7.7%
11 | CCCCOc1ccc(C=C2C(=O)Nc3c(Br)cc(Br)cc32)cc1 [10740/A11] | −3.5%
12 | O=C1Nc2ccc(I)cc2C1=Cc1cnc2ccccc2c1 [10740/B02] | −17.0%
13 | O=C1Nc2ccc(I)cc2C1=Cc1ccnc2ccccc12 [10740/B03] | −9.3%
14 | O=C1Nc2ccc(I)cc2C1=Cc1ccsc1 [10740/B05] | −11.6%
15 | O=C1Nc2ccc(I)cc2C1=Cc1ccc2ccccc2n1 [10740/B06] | −5.9%
16 | Cn1cc(C=C2C(=O)Nc3ccc(I)cc32)c2ccccc21 [10740/B07] | −8.5%
17 | Cc1[nH]c2ccccc2c1C=C1C(=O)Nc2ccc(I)cc21 [10740/B08] | 6.6%
18 | O=C1Nc2ccc(I)cc2C1=Cc1cc(Br)cs1 [10740/B10] | 11.8%
19 | CCCCOc1ccc(C=C2C(=O)Nc3ccc(I)cc32)cc1 [10740/B11] | 0.7%
20 | Cc1c(Br)ccc2c1C(=Cc1cnc3ccccc3c1)C(=O)N2 [10740/C02] | −5.9%
21 | Cc1c(Br)ccc2c1C(=Cc1ccnc3ccccc13)C(=O)N2 [10740/C03] | −129.3%
22 | COC1CCCN1C=C1C(=O)Nc2ccc(Br)c(C)c21 (centres unmarked) [10740/C04] | −3.4%
23 | Cc1c(Br)ccc2c1C(=Cc1ccsc1)C(=O)N2 [10740/C05] | −19.1%
24 | Cc1c(Br)ccc2c1C(=Cc1ccc3ccccc3n1)C(=O)N2 [10740/C06] | −19.1%
25 | Cc1c(Br)ccc2c1C(=Cc1cn(C)c3ccccc13)C(=O)N2 [10740/C07] | 1.1%

Row | Compound | Flk Kinase % Inhibition (P.110)
26 | Cc1[nH]c2ccccc2c1C=C1C(=O)Nc2ccc(Br)c(C)c21 [10740/C08] | 4.6%
27 | Cc1c(Br)ccc2c1C(=Cc1cc(Br)cs1)C(=O)N2 [10740/C10] | 0.8%
28 | CCCCOc1ccc(C=C2C(=O)Nc3ccc(Br)c(C)c32)cc1 [10740/C11] | 6.9%
29 | CNS(=O)(=O)c1ccc2c(c1)C(=Cc1cnc3ccccc3c1)C(=O)N2 [10740/D02] | 4.1%
30 | CNS(=O)(=O)c1ccc2c(c1)C(=Cc1ccnc3ccccc13)C(=O)N2 [10740/D03] | 15.1%
31 | CNS(=O)(=O)c1ccc2c(c1)C(=CN1CCCC1OC)C(=O)N2 (centres unmarked) [10740/D04] | −2.0%
32 | CNS(=O)(=O)c1ccc2c(c1)C(=Cc1ccsc1)C(=O)N2 [10740/D05] | −6.3%
33 | CNS(=O)(=O)c1ccc2c(c1)C(=Cc1ccc3ccccc3n1)C(=O)N2 [10740/D06] | 9.6%
34 | CNS(=O)(=O)c1ccc2c(c1)C(=Cc1cn(C)c3ccccc13)C(=O)N2 [10740/D07] | −4.5%
35 | CNS(=O)(=O)c1ccc2c(c1)C(=Cc1c(C)[nH]c3ccccc13)C(=O)N2 [10740/D08] | −6.4%
36 | CNS(=O)(=O)c1ccc2c(c1)C(=Cc1cc(Br)cs1)C(=O)N2 [10740/D10] | 1.5%
37 | CCCCOc1ccc(C=C2C(=O)Nc3ccc(S(=O)(=O)NC)cc32)cc1 [10740/D11] | 3.0%
38 | O=C1Nc2ccc(S(=O)(=O)Nc3ccc(C(F)(F)F)cc3)cc2C1=Cc1cnc2ccccc2c1 [10740/E02] | 9.6%
39 | O=C1Nc2ccc(S(=O)(=O)Nc3ccc(C(F)(F)F)cc3)cc2C1=Cc1ccnc2ccccc12 [10740/E03] | 0.2%
40 | COC1CCCN1C=C1C(=O)Nc2ccc(S(=O)(=O)Nc3ccc(C(F)(F)F)cc3)cc21 (centres unmarked) [10740/E04] | 2.0%
41 | O=C1Nc2ccc(S(=O)(=O)Nc3ccc(C(F)(F)F)cc3)cc2C1=Cc1ccsc1 [10740/E05] | 28.7%
42 | O=C1Nc2ccc(S(=O)(=O)Nc3ccc(C(F)(F)F)cc3)cc2C1=Cc1ccc2ccccc2n1 [10740/E06] | −8.4%
43 | Cn1cc(C=C2C(=O)Nc3ccc(S(=O)(=O)Nc4ccc(C(F)(F)F)cc4)cc32)c2ccccc21 [10740/E07] | 34.4%
44 | Cc1[nH]c2ccccc2c1C=C1C(=O)Nc2ccc(S(=O)(=O)Nc3ccc(C(F)(F)F)cc3)cc21 [10740/E08] | 39.1%
45 | O=C1Nc2ccc(S(=O)(=O)Nc3ccc(C(F)(F)F)cc3)cc2C1=Cc1cc(Br)cs1 [10740/E10] | 11.8%
46 | CCCCOc1ccc(C=C2C(=O)Nc3ccc(S(=O)(=O)Nc4ccc(C(F)(F)F)cc4)cc32)cc1 [10740/E11] | 17.1%
47 | O=C1Nc2ccc(S(=O)(=O)N3CCOCC3)cc2C1=Cc1cnc2ccccc2c1 [10740/F02] | 2.8%
48 | O=C1Nc2ccc(S(=O)(=O)N3CCOCC3)cc2C1=Cc1ccnc2ccccc12 [10740/F03] | −0.9%
49 | COC1CCCN1C=C1C(=O)Nc2ccc(S(=O)(=O)N3CCOCC3)cc21 (centres unmarked) [10740/F04] | 6.8%
50 | O=C1Nc2ccc(S(=O)(=O)N3CCOCC3)cc2C1=Cc1ccsc1 [10740/F05] | −13.5%

Row | Compound | Flk Kinase % Inhibition (P.110)
51 | O=C1Nc2ccc(S(=O)(=O)N3CCOCC3)cc2C1=Cc1ccc2ccccc2n1 [10740/F06] | 1.3%
52 | Cn1cc(C=C2C(=O)Nc3ccc(S(=O)(=O)N4CCOCC4)cc32)c2ccccc21 [10740/F07] | −6.3%
53 | Cc1[nH]c2ccccc2c1C=C1C(=O)Nc2ccc(S(=O)(=O)N3CCOCC3)cc21 [10740/F08] | −5.0%
54 | O=C1Nc2ccc(S(=O)(=O)N3CCOCC3)cc2C1=Cc1cc(Br)cs1 [10740/F10] | 10.0%
55 | CCCCOc1ccc(C=C2C(=O)Nc3ccc(S(=O)(=O)N4CCOCC4)cc32)cc1 [10740/F11] | 8.2%
56 | O=C1Nc2ccc(CCCl)cc2C1=Cc1cnc2ccccc2c1 [10740/G02] | −2.6%
57 | O=C1Nc2ccc(CCCl)cc2C1=Cc1ccnc2ccccc12 [10740/G03] | −2.0%
58 | COC1CCCN1C=C1C(=O)Nc2ccc(CCCl)cc21 (centres unmarked) [10740/G04] | −5.1%
59 | O=C1Nc2ccc(CCCl)cc2C1=Cc1ccsc1 [10740/G05] | −18.6%
60 | O=C1Nc2ccc(CCCl)cc2C1=Cc1ccc2ccccc2n1 [10740/G06] | −19.3%
61 | Cn1cc(C=C2C(=O)Nc3ccc(CCCl)cc32)c2ccccc21 [10740/G07] | 0.4%
62 | Cc1[nH]c2ccccc2c1C=C1C(=O)Nc2ccc(CCCl)cc21 [10740/G08] | −0.5%
63 | O=C1Nc2ccc(CCCl)cc2C1=Cc1cc(Br)cs1 [10740/G10] | −2.8%
64 | CCCCOc1ccc(C=C2C(=O)Nc3ccc(CCCl)cc32)cc1 [10740/G11] | 3.3%
65 | Cc1c(Br)cc(Br)c2c1C(=Cc1cnc3ccccc3c1)C(=O)N2 [10740/H02] | −3.7%
66 | Cc1c(Br)cc(Br)c2c1C(=Cc1ccnc3ccccc13)C(=O)N2 [10740/H03] | −9.7%
67 | COC1CCCN1C=C1C(=O)Nc2c(Br)cc(Br)c(C)c21 (centres unmarked) [10740/H04] | 6.0%
68 | Cc1c(Br)cc(Br)c2c1C(=Cc1ccsc1)C(=O)N2 [10740/H05] | 5.8%
69 | Cc1c(Br)cc(Br)c2c1C(=Cc1ccc3ccccc3n1)C(=O)N2 [10740/H06] | 3.2%
70 | Cc1c(Br)cc(Br)c2c1C(=Cc1cn(C)c3ccccc13)C(=O)N2 [10740/H07] | 10.1%
71 | Cc1[nH]c2ccccc2c1C=C1C(=O)Nc2c(Br)cc(Br)c(C)c21 [10740/H08] | 11.5%
72 | Cc1c(Br)cc(Br)c2c1C(=Cc1cc(Br)cs1)C(=O)N2 [10740/H10] | 0.4%
73 | CCCCOc1ccc(C=C2C(=O)Nc3c(Br)cc(Br)c(C)c32)cc1 [10740/H11] | 7.4%

Tested on: PDGF-R
Test: PDGF-R Assay (cellular ELISA, U1242 cells)
Assay type: cell-based
Design: concentration or dose not given beside the values
Details: protocol P.119
Summary of the method: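 U1242 cells seeded in 0.5% serum, serum-starved, then exposed to compound for 2 hr at 37°C before 5–10 min ligand stimulation and lysis in HNTG. Lysate captured on receptor-antibody-coated plates; phosphotyrosine detected with polyclonal anti-pTyr, goat anti-rabbit IgG and ABTS/H2O2, A410 (ref 630 nm), versus untreated cells.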

Row | Compound | PDGF Kinase % Inhibition (P.119)
74 | Cc1c(Br)cc(Br)c2c1C(=Cc1ccc(CO)o1)C(=O)N2 [10739/H11] | 4.2%
